This is an account of results in US20220154204A1, “ENHANCING DROUGHT, SALINITY AND COLD TOLERANCE IN PLANTS AND TREES” (The Regents of the University of California, priority 2019, published 2022).

For one assay, the system named is S-type anion channels. Nature of the assay: Patch-clamp analyses of S-type anion channel currents in guard cell protoplasts. It is filed as cell-based, Arabidopsis. Particulars: 10 μM, guard cells of wildtype (Col-0) and HsMYO control line. The method, then:
Guard cell protoplasts from 4 to 6 week-old Arabidopsis plants were prepared^24,33 ABA-activated S-type anion channel current recordings were carried out by using an Axon 200A amplifier (Axon instruments) and a Digidata 1440A low-noise data acquisition system. Epidermal tissues were isolated from one or two rosette leaves and collected using a nylon mesh (100-μm pore size). […]
S-type anion currents in guard cell protoplasts were recorded using the whole-cell patch-clamp technique^24,33. […]
a, Leaves from m3k amiRNAi and the control amiRNA-HsMYO line (expressing an amiRNA targeting human myosin 2), which has no target gene in Arabidopsis plants were analyzed in time-resolved stomatal conductance analyses in which 1 μM ABA was added to the transpiration stream via the petiole (as described in e.g., Ceciliato, P. et al. Plant Methods 15, doi:10.1186/s13007-019-0423-y (2019)) as indicted by the red arrowhead (n=3 leaves from 3 independent plants per genotype, +/−s.d.). b, Normalized relative stomatal conductance to the first data point shown in (a). c-h, ABA-activated S-type anion channel currents were investigated by patch-clamp analyses using guard cell protoplasts from the wildtype parent Col-0 (c, d), the HsMYO amiRNA control line (e, f), and the m3k amiRNA line (g, h). […]
For orientation: In patch-clamp work, channel activity is measured electrically.

For assay [1], the system named is OST1/SnRK2.6. Briefly: In vivo Ser-171 phosphorylation of OST1/SnRK2.6-GFP in mesophyll cell protoplasts by LC-MS/MS. The assay is classed as cell-based, Arabidopsis. The note with it: 20 μM ABA for 15 min vs control. As for the experimental part: 30 μg GST-OST1/SnRK2.6(D140A) and 2.5 μg GST-M3Kδ1 kinase domain were incubated in phosphorylation buffer (50 mM Tris-HCl pH 7.5, 10 mM MgCl2, 0.1% Triton X-100, and 1 mM DTT) with 1 mM ATP for 2 hr at room temperature. Proteins were precipitated by acetone precipitation and dissolved in SDS-PAGE loading buffer. After SDS-PAGE and CBB staining, protein bands of GST-OST1/SnRK2.6(D140A) were excised and analyzed by LC-MS/MS^17. For in vivo Ser-171 phosphorylation, OST1/SnRK2.6-GFP was transiently expressed in Arabidopsis mesophyll cell protoplasts. The protoplasts were incubated with or without 20 μM ABA for 15 min, and OST1/SnRK2.6 proteins were purified by immunoprecipitation using anti-GFP antibodies. After SDS-PAGE and CBB staining, OST1/SnRK2.6-GFP bands were excised and analyzed by LC-MS/MS^17
a, The sequence of identified phosphorylated peptide by mass spectrometry. OST1/SnRK2.6-GFP was expressed in Arabidopsis mesophyll cell protoplasts and purified by immunoprecipitation with GFP antibodies before or after 20 μM ABA treatment for 15 min. S(+79.97) indicates phosphorylated serine residues. Values (Control and ABA) indicate normalized peak areas for phosphorylated peptides. The phosphorylated peptide was not detected in the control sample.

Another assay deals with SLAC1. Briefly: Two-electrode voltage clamp recordings of SLAC1 currents in Xenopus oocytes. It is filed as cell-based, Arabidopsis. Particulars: Xenopus oocytes co-injected with PYL9/RCAR1, ABI1, OST1/SnRK2.6, SLAC1 with or without M3Ks, 50 μM ABA. An excerpt:
The PCR amplified cDNA fragments of OST1, SLAC1, PYL9/RCAR1, ABI1, M3Kδ1, M3Kδ6 and M3Kδ7 were cloned into the oocyte expression vector pNB1 by using an advanced uracil-excision based cloning strategy as previously described^60. The mutant isoforms OST1-S171A, M3Kδ6-K775W and M3Kδ7-K740W were generated using the Quikchange Site-Directed Mutagenesis kit (Agilent Technologies). Linearized plasmids were used to generate cRNAs via the mMESSAGE mMACHINE® T7 kit (Thermo Fisher Scientific, Catalog number: AM1344). […] Steady state currents were recorded with 3 second voltage pulses ranging from +40 mV to −120 mV in −20 mV decrements, followed by a “tail” voltage of −120 mV and the holding potential was kept at 0 mV.
SLAC1-mediated currents in oocytes vary showing either time-dependent relaxation or more instantaneous currents when using a chloride bath solution^61,62. […] To avoid time-of-measurement and inter-batch dependence in the data, H2O-injected control and other indicated controls were included in each batch of oocytes and control experiments were recorded intermittently with the investigated conditions.
a and b, In vitro reconstitution of ABA-induced OST1/SnRK2 activation without M3Kδ6 (a) or with M3Kδ6 (b). […] Phosphorylation of AKS1 is detected by binding of 14-3-3Phi (At1g35160) to the phosphorylated AKS1 protein^15. […]
A general note: Two-electrode voltage clamp holds a large cell at a set potential and records current.

In assay [2] the target is T1, OST1/SnRK2.6 (Arabidopsis thaliana, UniProt Q940H6).
T1 construct: made in house; host or cells: E. coli
T1 sequence (Q940H6 1-362): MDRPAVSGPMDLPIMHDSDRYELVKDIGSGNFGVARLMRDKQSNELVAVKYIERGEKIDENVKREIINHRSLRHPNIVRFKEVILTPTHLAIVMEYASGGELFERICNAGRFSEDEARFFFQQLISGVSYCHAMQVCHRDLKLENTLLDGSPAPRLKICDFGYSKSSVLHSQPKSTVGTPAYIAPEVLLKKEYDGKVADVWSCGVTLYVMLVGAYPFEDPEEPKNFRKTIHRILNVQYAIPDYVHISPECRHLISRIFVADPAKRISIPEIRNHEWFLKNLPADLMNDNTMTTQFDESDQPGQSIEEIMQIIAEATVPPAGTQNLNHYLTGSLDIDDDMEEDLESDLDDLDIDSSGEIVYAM
Nature of the assay: In vitro phosphorylation assay of CIAP-dephosphorylated GST-OST1/SnRK2.6 with other protein kinases. The assay is classed as biochemical. The note with it: GST-OST1/SnRK2.6 dephosphorylated by CIAP, [γ-32P]-ATP. As for the experimental part:
We investigated phosphorylation of purified recombinant GST-tagged OST1/SnRK2.6 protein kinase after dephosphorylation in vitro. To test whether OST1/SnRK2.6 could be re-activated by autophosphorylation, after dephosphorylation, the GST-OST1/SnRK2.6 protein bound on glutathione sepharose 4B resin was incubated with calf intestinal alkaline phosphatase (CIAP), and [γ-^32P]-ATP was added to the reaction after wash out of CIAP. […] Therefore, another unknown protein kinase may be required for reversible ABA signal transduction.
10 μg GST-OST1/SnRK2.6 proteins were bound to glutathione sepharose 4B beads and incubated with 30 U CIAP for 2 hr at room temperature. […]
a, Seeds of amiR-HsMYO wild-type (control line) or amiR-ax1117 mutant were sowed on ½ MS medium containing 2 μM ABA, or 0.02% EtOH as control, for germination assays. Representative images showing seed germination after 6 days. b, The percentage of seedlings showing green cotyledons was analyzed. […] In-gel kinase assays were performed using histone type III-S as a substrate. e, SnRK2 band intensities as shown in (d) were measured using ImageJ, n=3 experiments, error bars show +/−s.e.m. f, Recombinant GST-OST1/SnRK2.6 protein was dephosphorylated by alkaline phosphatase in vitro and used for in vitro phosphorylation assays after incubation with CPK6, CPK23 or MPK12 protein kinases. […]

Consider `CC1=CC(=O)CC(C)(C)[C@@]1(O)/C=C/C(C)=C\C(=O)O` [ABA, abscisic acid], for which the “activation of S-type anion currents in guard cells” value in the assay on S-type anion channels is “typical ABA activation of S-type anion currents”. For the same molecule, the “phosphorylation of OST1 Ser171 in mesophyll cells” value in the assay with OST1/SnRK2.6 [1] was “clearly phosphorylated”. In addition, in the assay on SLAC1, the “ABA-dependent SLAC1 anion channel activation” value is on record as “could activate SLAC1 in oocytes only in the presence of low concentrations of either M3Kδ1, M3Kδ6 or M3Kδ7 mRNAs”.
In the case of “CPK23: calcium-dependent protein kinase of ABA signalling”, the “phosphorylation of OST1/SnRK2.6 after dephosphorylation” value with OST1/SnRK2.6 [2] was “did not phosphorylate”.
